Biological target: Dopamine receptor (Bos taurus, UniProt Q95136+P20288)
Assay: Evaluated for the inhibition of binding of [3H]DA (dopamine) to dopamine receptor in calf striatal homogenate

Work on NC1CCc2cc(O)c(O)cc2C1 (stereo unspecified) yielded an IC50 of 6 nM.

— ChEMBL document CHEMBL1122198, “Synthesis and dopamine receptor binding of exo- and endo-2-amino-6,7-dihydroxybenzonorbornene, rigid analogues of 2-amino-6,7-dihydroxytetrahydronaphthalene” (J Med Chem, 1982)
